Laboratory results taken from paper PMC6936348, “Reactivation of Epstein–Barr virus by a dual-responsive fluorescent EBNA1-targeting agent with Zn^2+-chelating function” (Proceedings of the National Academy of Sciences of the …, 2019).

Experiments:
[1] = system: EBNA1 monomer homodimerization; conditions: peptide P4; cited from earlier work
Text: (§1) Epstein–Barr nuclear antigen 1 (EBNA1) is the only viral protein expressed in nearly all forms of EBV latency and its associated cancers which plays a vital role in the maintenance of viral genome ([3]). EBNA1 is also important for the transcriptional activation of some other EBV latency genes ([4]). Homodimerization of EBNA1 is known to be critical for EBNA1–DNA binding and the subsequent functions of oriP (latent origin of replication), including viral DNA replication and segregation, maintenance of the EBV episomal genome, and transcriptional activation ([5]). Thus, EBNA1 not only serves as ...

EBV-infected cells = conditions: peptide P4; cited from earlier work
Text: as §1

[2] = Fluorescence response toward Zn2+; type: binding; conditions: 2 µM probe, excitation 337 nm
HeLa xenograft = conditions: 4 μg/injection every three days, 19 days, vs control
[3] = system: EBV-positive NPC43, C666-1 and Raji cells; experiment: MTT cytotoxicity, EBV-positive cell panel; type: cell-based; conditions: 1 to 20 µM, 5 d
[4] = system: infectious EBV particles from HONE-1-EBV cells; experiment: EBV infection assay (Raji cell assay, virions from HONE-1-EBV); type: cell-based, Epstein–Barr virus; conditions: 10 µM, 4 d, triplicate, P = 0.009 (ZRL5P4), P = 0.06 (ZRL5P2)
[5] = system: Rta, BMRF1, gp350/220 in NPC43 cells; experiment: Western blot of lytic proteins in NPC43; type: cell-based, Epstein–Barr virus; conditions: 10 µM, 7 d
Text: Fig. 5. EBV lytic induction analysis of EBV-positive tumors and cells in response to the EBNA1 probes. (A) IHC analysis of lytic proteins Zta, BMRF1, and VCA-p18 in the transplanted C666-1–derived tumor tissues as described in Fig. 4 E–G. Representative results are shown. […] Insets (in the red boxes) are the enlarged images to indicate the cellular localization of the 3 proteins. Negative control staining images are included for the mouse antibodies (mAb) against Zta and BMRF1 and for the rat antibody (rAb) against VCA-p18. Magnification, 400×. […] TPA/NaB (20 ng/mL TPA, 3 mM NaB) serves as a positive control of lytic induction. The presence of these 4 lytic proteins is indicated by red signals. The nuclei were stained with DAPI. […] Acetylated histone H3 (Ac-Histone H3) was also detected. β-actin serves as the loading control. […] The gene expression was analyzed by qRT-PCR. The fold change of relative gene expression after each treatment was compared with the solvent control (DMSO). Data are expressed as the means ± CI.
Western blot analysis of Zta, Rta, BMRF1, and gp350/220 was performed as reported ([41]). The Rta antibody was supplied from Argene (Verniolle) and the β-actin antibody for loading control was supplied from Cell Signaling Technology. Antibodies against Zta, BMRF1, gp350/220, Dicer1, and PML were the ones used for IF staining. A 1:400 dilution of the primary antibodies was used.

[6] = system: EBV-positive C666-1 and NPC43 cells; experiment: Two-photon imaging, subcellular localization in EBV-positive cells; type: cell-based; conditions: 10 µM, 3 h, two-photon λex 700 nm
C666-1 xenograft = experiment: C666-1 xenograft, intratumoral injection; conditions: 4 µg per injection twice weekly, 18 d, n = 5
[7] = target: the molecule itself; experiment: self-association assay read by SDS-PAGE and anti-His Western blot

Molecule: CAhxYFMVFGGRrRK [P4]
- EBNA1 homodimerization [1]: able to interfere with the homodimerization of the EBNA1 monomer
- EBV-infected cell growth (EBV-infected cells): suppress EBV-infected cell growth

Molecule: YFMVF [ZRL5P2]
- Emission change upon addition of Zn2+ ([2]; 2 equiv. Zn2+, CH3CN/0.05 M Hepes pH 7.4, 50:50): slightly blue-shifted emission
- Maximum emission wavelength, without Zn2+ ([2]; CH3CN/0.05 M Hepes pH 7.4, 50:50, absence of Zn2+): 448 nm
- Maximum emission wavelength, with Zn2+ ([2]; CH3CN/0.05 M Hepes pH 7.4, 50:50, presence of Zn2+): 445 nm
- Body weights (HeLa xenograft): did not cause any significant changes in body weights
- Growth-inhibitory effect, comparison [3]: the least efficient one
- Virion production versus DMSO control [4]: 2.6 fold
- Rta and BMRF1 expression [5]: much weaker than those of ZRL5P4
- Subcellular localization [6]: only found in the cytoplasm
- Tumor growth (C666-1 xenograft): did not significantly affect tumor growth

B1: Full-length EBNA1 (residues 1 to 641) with an N-terminal His tag (ab138345; Abcam) (natural protein)
chain: MSDEGPGTGPGNGLGEKGDTSGPEGSGGSGPQRRGGDNHGRGRGRGRGRGGGRPGAPGGSGSGPRHRDGVRRPQKRPSCIGCKGTHGGTGAGAGAGGAGAGGAGAGGGAGAGGGAGGAGGAGGAGAGGGAGAGGGAGGAGGAGAGGGAGAGGGAGGAGAGGGAGGAGGAGAGGGAGAGGGAGGAGAGGGAGGAGGAGAGGGAGAGGAGGAGGAGAGGAGAGGGAGGAGGAGAGGAGAGGAGAGGAGAGGAGGAGAGGAGGAGAGGAGGAGAGGGAGGAGAGGGAGGAGAGGAGGAGAGGAGGAGAGGAGGAGAGGGAGAGGAGAGGGGRGRGGSGGRGRGGSGGRGRGGSGGRRGRGRERARGGSRERARGRGRGRGEKRPRSPSSQSSSSGSPPRRPPPGRRPFFHPVGEADYFEYHQEGGPDGEPDVPPGAIEQGPADDPGEGPSTGPRGQGDGGRRKKGGWFGKHRGQGGSNPKFENIAEGLRALLARSHVERTTDEGTWVAGVFVYGGSKTSLYNLRRGTALAIPQCRLTPLSRLPFGMAPGPGPQPGPLRESIVCYFMVFLQTHIFAEVLKDAIKDLVMTKPAPTCNIRVTVCSFDDGVDLPPWFPPMVEGAAAEGDDGDDGDEGGDGDEGEEGQE
notes: source: bought: Abcam (ab138345); not shown: His tag, N-terminal, kept
- stoichiometry N [7]: 2
